Measurements as given in ChEMBL document CHEMBL1124036 (J Med Chem, 1988).

What was measured:
Vaccinia virus [1] = assay: Virus rating on vaccinia virus measured as the degree of inhibition of virus induced cytopathogenic effect in L929 cells; type: functional, Orthopoxvirus vaccinia
Vaccinia virus [2] = assay: The minimum inhibitory concentration required for 50% inhibition of vaccinia virus induced cytopathogenic effect in L929 cells; G indicates CPE reduction <50%; type: functional, organism-based; details: Orthopoxvirus vaccinia

| SMILES | Virus rating (Vaccinia virus [1]) | MIC50 (Vaccinia virus [2]) |
| --- | --- | --- |
| [N-]=[N+]=N[C@H]1C(n2cnc3c(N)nc(F)nc32)O[C@H](CO)[C@@H]1O (some centres undefined) | 2.4 | – |
| Nc1nc(Cl)nc2c1ncn2C1O[C@H](CO)[C@H](O)[C@H]1Cl (some centres undefined) | 0.7 | – |
| Nc1nc(F)nc2c1ncn2C1O[C@H](CO)[C@H](O)[C@H]1Cl (some centres undefined) | 0.6 | – |
| Nc1nc(F)nc2c1ncn2C1O[C@H](CO)[C@H](O)[C@H]1N (some centres undefined) | 0.7 | – |
| [N-]=[N+]=N[C@H]1C(n2cnc3c(N)nc(Cl)nc32)O[C@H](CO)[C@@H]1O (some centres undefined) | 0.8 | – |
| Nc1nc(Cl)nc2c1ncn2C1O[C@H](CO)[C@H](O)[C@H]1N (some centres undefined) | 0.6 | CPE reduction <50% |
| Nc1nc(Cl)nc2c1ncn2C1O[C@H](CO)[C@H](O)[C@H]1I (some centres undefined) | 0 | – |
| Nc1nc(Cl)nc2c1ncn2C1O[C@H](CO)[C@H](O)[C@H]1Br (some centres undefined) | 0.4 | – |
